From article PMC8151276, “An Integrated Approach toward NanoBRET Tracers for Analysis of GPCR Ligand Engagement” (Molecules, 2021) come the findings set out here.

Type in all cases: binding
In one assay the target is T1, GABBR2 (Homo sapiens, UniProt O75899).
T1 construct: purchased Promega (in-house HiBiT-GPCR construct library, NanoBRET)
T1 sequence (O75899 42-941): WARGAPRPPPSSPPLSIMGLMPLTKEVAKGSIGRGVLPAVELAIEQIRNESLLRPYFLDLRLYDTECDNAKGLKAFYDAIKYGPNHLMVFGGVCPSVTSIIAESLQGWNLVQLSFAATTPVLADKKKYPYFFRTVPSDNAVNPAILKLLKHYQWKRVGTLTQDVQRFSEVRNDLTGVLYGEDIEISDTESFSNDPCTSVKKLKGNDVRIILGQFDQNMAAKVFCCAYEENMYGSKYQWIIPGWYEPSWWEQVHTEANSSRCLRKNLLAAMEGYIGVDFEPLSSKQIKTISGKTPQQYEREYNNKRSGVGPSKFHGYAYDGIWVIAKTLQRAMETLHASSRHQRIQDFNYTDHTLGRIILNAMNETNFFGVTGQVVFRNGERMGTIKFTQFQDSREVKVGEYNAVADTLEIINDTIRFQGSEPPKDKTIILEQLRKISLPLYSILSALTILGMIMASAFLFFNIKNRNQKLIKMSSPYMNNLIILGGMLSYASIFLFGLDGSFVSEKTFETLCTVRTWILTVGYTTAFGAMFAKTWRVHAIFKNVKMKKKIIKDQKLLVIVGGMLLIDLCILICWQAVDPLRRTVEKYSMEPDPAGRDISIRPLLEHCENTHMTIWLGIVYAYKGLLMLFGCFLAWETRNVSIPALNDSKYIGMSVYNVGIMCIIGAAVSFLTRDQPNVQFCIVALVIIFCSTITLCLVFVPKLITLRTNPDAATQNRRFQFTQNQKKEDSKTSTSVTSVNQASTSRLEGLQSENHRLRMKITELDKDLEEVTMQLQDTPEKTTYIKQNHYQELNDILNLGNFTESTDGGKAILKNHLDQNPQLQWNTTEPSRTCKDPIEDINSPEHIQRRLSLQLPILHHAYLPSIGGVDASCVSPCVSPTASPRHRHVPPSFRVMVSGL
Description: NanoBRET screen HiBiT-GABBR2 in HEK293. The procedure: (§1) Each tracer candidate was screened across the entire library of HiBiT-GPCR constructs using NanoBRET as the detection modality. As depicted in Figure 4A, the specificity of interactions was evaluated through decrease in BRET due to competitive displacement of a bound tracer by excess parental compound. Each tracer was analyzed for binding to each HiBiT-GPCR fusion in the absence and in the presence of competing parental compound. Briefly, HEK293 cells were transfected with HiBiT-GPCR constructs diluted into promoterless DNA to reduce expression and maximize translocation to the cell surface. Each tracer candidate was then screened at concentrations of 1 μM and 0.1 μM across cells expressing these fusions. Cells were treated for 1.5 h with tracer either alone or in the presence of 20 μM competing parental compound (i.e., control). BRET was measured upon addition of purified LgBiT and subsequent complementation with HiBiT genetically fused to a GPCR. The specificity of interactions was assessed through a decrease in BRET signal due to competitive displacement of the bound tracer. To further gauge the robustness of these interactions, the fold response over the control (i.e., BRETtracer/BRETcontrol) was calculated. We chose a 1.5-fold response, which translates to ≥7-fold signal over noise as the minimal threshold required to score an interaction as positive. […]. Below we highlight the screening results obtained for our exemplary fluorescent tracers based on Clozapine, Amitriptyline and AZD1283.
(§2) HiBiT-GPCR DNA constructs were diluted in 10 mM Tris pH 8 to a final concentration of 0.01 μg/μL, arrayed in 96-well plates and stored at −20 °C. For transfection, HEK293 cells were suspended in Opti-MEM (without phenol red) supplemented with 2% fetal bovine serum (Seradigm) and 100 units/mL penicillin–streptomycin (Gibco) at a final concentration of 220,000 cells/mL and dispensed into white 96-well plates at 90 μL/well. Subsequent transfections and screens were carried using an Agilent Bravo Automated Liquid Handling Platform. First, the 96-well HiBiT DNA arrays were diluted 25-fold in Opti-MEM (without serum or phenol red) to a final concentration of 0.0004 μg/μL and 20 μL of the diluted DNAs were transferred into new 96-well plates. Next, promoterless carrier DNA (1 μg/μL) was diluted 25-fold (0.04 μg/μL) and then dispensed into the diluted arrays at 20 μL/well. Following brief mixing, Viafect transfection reagent (Promega) diluted 16-fold into Opti-MEM was dispensed into the plates at 40 μL/well. After mixing by pipetting, plates were incubated for 10 min on the pipetting station deck. The DNA-transfection reagent complexes were then added to plates containing cells. To facilitate the screen, 10 μL of DNA-transfection reagent complexes were added in duplicates to the top 4 and bottom 4 rows, resulting in two identical 48-well arrays per plate. Plates with transfected cells were incubated for 18–20 h at 37 °C/5% CO2. A screen of each tracer across the entire library using two different concentrations requires duplicate plates of transfected cells. Depending on the number of tracers being screened, transfections can be scaled up using the same ratios. The next day, for each tracer, four 20× screening solutions in tracer dilution buffer (Promega) were prepared: two duplicates at final concentration of 20 μM and two duplicates at a final concentration of 2 μM. A competing unmodified compound was added to one of each duplicate at a final concentration of 400 μM. The four resulting solutions were diluted 4-fold in Opti-MEM without serum or phenol red to generate 5× solutions (5 µM and 0.5 µM tracer +/− 100 μM competing compound). To screen the library, a BioTek MultiFlo FX liquid dispenser was used to dispense 22.5 µL of tracer solution to the top 4 rows and 22.5 µL tracer + competing compound solution to the 4 bottom rows. Plates were briefly mixed on an orbital shaker and incubated for 1.5 h at room temperature. […]
(In BRET a luciferase serves as donor, and the signal depends on an acceptor being close.)

Another assay concerns the target T2, P2RY11 (Homo sapiens, UniProt Q96G91).
T2 construct: purchased Promega (in-house HiBiT-GPCR construct library, NanoBRET)
T2 sequence (Q96G91 1-374): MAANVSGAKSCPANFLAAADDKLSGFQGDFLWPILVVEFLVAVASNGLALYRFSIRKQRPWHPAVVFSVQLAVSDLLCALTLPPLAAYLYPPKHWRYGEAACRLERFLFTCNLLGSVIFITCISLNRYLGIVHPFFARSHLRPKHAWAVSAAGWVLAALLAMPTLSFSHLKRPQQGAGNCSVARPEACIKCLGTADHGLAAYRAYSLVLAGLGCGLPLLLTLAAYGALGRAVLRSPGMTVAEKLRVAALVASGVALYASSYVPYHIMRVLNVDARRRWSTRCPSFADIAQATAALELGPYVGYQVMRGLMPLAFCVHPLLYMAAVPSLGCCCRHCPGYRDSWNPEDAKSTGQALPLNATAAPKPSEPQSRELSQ
Description: NanoBRET screen HiBiT-P2RY11 in HEK293. The protocol:
as §1, §2

A further assay deals with T3, MCHR1 (Homo sapiens, UniProt Q99705).
T3 construct: purchased Promega (in-house HiBiT-GPCR construct library, NanoBRET)
T3 sequence (Q99705 whole entry): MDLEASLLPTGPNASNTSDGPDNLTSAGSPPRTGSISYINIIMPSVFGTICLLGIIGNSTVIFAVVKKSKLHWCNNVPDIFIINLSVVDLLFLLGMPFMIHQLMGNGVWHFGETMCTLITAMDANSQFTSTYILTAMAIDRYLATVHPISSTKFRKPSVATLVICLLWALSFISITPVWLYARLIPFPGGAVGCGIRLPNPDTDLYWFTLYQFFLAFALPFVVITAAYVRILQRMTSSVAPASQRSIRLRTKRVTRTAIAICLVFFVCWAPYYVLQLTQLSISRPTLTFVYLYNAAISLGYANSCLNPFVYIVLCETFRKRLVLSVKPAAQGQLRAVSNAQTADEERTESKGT
Description: NanoBRET screen HiBiT-MCHR1 in HEK293. The procedure: as §1, §2

Regarding `O=C(CCc1ccc2n1[B-](F)(F)[N+]1=C(c3ccc[nH]3)C=CC1=C2)NCc1ccc(C(=O)NCCOCCC(=O)N[C@@H]2CC[C@@]3(O)[C@H]4Cc5ccc(O)c6c5[C@@]3(CCN4CC3CC3)[C@H]2O6)cc1` [Naltrexone-3-NB590], the “NanoBRET Fold Response” value on GABBR2 (GABBR2, tracer 0.1μM) was determined as 0.80; on GABBR2 (GABBR2, tracer 1μM) it was 1.11; at P2RY11 (P2RY11, tracer 0.1μM) it was 1.26; on P2RY11 (P2RY11, tracer 1μM) it was 0.71; at MCHR1 (MCHR1, tracer 0.1μM), 1.07; at MCHR1 (MCHR1, tracer 1μM) it was 0.92.

Turning to `CN1CCN(C2=Nc3cc(Cl)ccc3N(CC(=O)NCCOCCOCCOCCOCCNC(=O)CCc3ccc4n3[B-](F)(F)[N+]3=C(c5ccc[nH]5)C=CC3=C4)c3ccccc32)CC1` [Clozapine-c-2-NB590], the “NanoBRET Fold Response” value on GABBR2 (GABBR2, 0.1μM tracer) is on record as 0.99; at GABBR2 (GABBR2, 1μM tracer), 1.02; on P2RY11 (P2RY11, 0.1μM tracer), 0.93; on P2RY11 (P2RY11, 1μM tracer) it was 0.98; on MCHR1 (MCHR1, 0.1μM tracer), 1.00; on MCHR1 (MCHR1, 1μM tracer), 0.93.

As for `O=C(CCOCCOCCOCCOCCNC(=O)CCc1ccc2n1[B-](F)(F)[N+]1=C(c3ccc[nH]3)C=CC1=C2)NCCCN1CCN(C2=Nc3cc(Cl)ccc3Nc3ccccc32)CC1` [Clozapine-a-2-NB590], the “NanoBRET Fold Response” value stood at 1.07 at GABBR2 (GABBR2, 0.1μM tracer); 0.80 on GABBR2 (GABBR2, 1μM tracer); 1.04 at P2RY11 (P2RY11, 0.1μM tracer); 0.93 at P2RY11 (P2RY11, 1μM tracer); 0.87 at MCHR1 (MCHR1, 0.1μM tracer); 1.26 on MCHR1 (MCHR1, 1μM tracer).

For the compound `CCOC(=O)c1cc(C#N)c(N2CCC(C(=O)NS(=O)(=O)Cc3ccccc3/C=C/C(=O)NCCNC(=O)CCc3ccc4n3[B-](F)(F)[N+]3=C(c5ccc[nH]5)C=CC3=C4)CC2)nc1C` [AZD1283-1-NB590], the “NanoBRET Fold Response” value on GABBR2 (GABBR2, 0.1μM) is 0.89; on GABBR2 (GABBR2, 1μM), 1.01; at P2RY11 (P2RY11, 0.1μM), 1.09; on P2RY11 (P2RY11, 1μM), 1.04; at MCHR1 (MCHR1, 0.1μM), 1.00; at MCHR1 (MCHR1, 1μM) it was 1.08.

On to `COc1ccc2[nH]c(-c3ccc(CNC(=O)CCOCCOCCOCCOCCNC(=O)CCc4ccc5n4[B-](F)(F)[N+]4=C(c6ccc[nH]6)C=CC4=C5)cc3)c(CCNC(C)=O)c2n1` [AzomelatoninICO9-2-NB590], for which the “NanoBRET Fold Response” value came out at 0.87 on GABBR2 (0.1μM tracer); 1.13 on GABBR2 (1μM tracer); 1.19 at P2RY11 (0.1μM tracer); 0.97 at P2RY11 (1μM tracer); 1.38 at MCHR1 (0.1μM tracer); 0.88 on MCHR1 (1μM tracer).

For the compound `CCCn1c(=O)c2[nH]c(-c3ccc(OCC(=O)NCCNC(=O)CCOCCNC(=O)c4ccc(CNC(=O)CCc5ccc6n5[B-](F)(F)[N+]5=C(c7ccc[nH]7)C=CC5=C6)cc4)cc3)nc2n(CCC)c1=O` [XAC-3-NB590], the “NanoBRET Fold Response” value stood at 1.02 at GABBR2 (GABBR2, tracer 0.1μM); 1.11 on GABBR2 (GABBR2, tracer 1μM); 1.21 on P2RY11 (P2RY11, tracer 0.1μM); 1.25 on P2RY11 (P2RY11, tracer 1μM); 1.01 on MCHR1 (MCHR1, tracer 0.1μM); 1.03 at MCHR1 (MCHR1, tracer 1μM).

In the case of `COc1ccccc1N1CCN(CCCCN2C(=O)c3ccc(CNC(=O)CCOCCNC(=O)c4ccc(CNC(=O)CCc5ccc6n5[B-](F)(F)[N+]5=C(c7ccc[nH]7)C=CC5=C6)cc4)cc3C2=O)CC1` [NAN-190-3-NB590], the “NanoBRET Fold Response” value was found to be 1.03 on GABBR2 (GABBR2, tracer 0.1μM); 1.10 at GABBR2 (GABBR2, tracer 1μM); 1.05 at P2RY11 (P2RY11, tracer 0.1μM); 0.96 on P2RY11 (P2RY11, tracer 1μM); 1.20 at MCHR1 (MCHR1, tracer 0.1μM); 0.86 at MCHR1 (MCHR1, tracer 1μM).

Turning to `CN(CCC=C1c2ccccc2CCc2ccccc21)C(=O)CCOCCOCCOCCOCCNC(=O)CCc1ccc2n1[B-](F)(F)[N+]1=C(c3ccc[nH]3)C=CC1=C2` [Amitriptyline-e-2-NB590], the “NanoBRET Fold Response” value at GABBR2 (tracer at 1μM) came out at 1.08; at P2RY11 (tracer at 1μM) it was 1.13.
